From patent US10874646B2, “Epothilone analogs, methods of synthesis, methods of treatment, and drug conjugates thereof” (WILLIAM MARSH RICE UNIVERSITY, priority 2015, dated 2020)

Legend:
A498 = assay: NCI-60 human cancer cell line panel, five dose screen; type: cell-based; details: NCI-60 five dose screen
Description: (§1) Biological evaluation. The synthesized epothilone analogues were submitted to the NCI for testing against the NCI-60 human cancer cell line panel (Shoemaker, 2006).

A549/ATCC = assay: as above; type: cell-based; details: NCI-60 five dose screen
Description: as §1

CCRF-CEM = assay: as above; type: cell-based; details: NCI-60 five dose screen
Description: as §1

COLO 205 = assay: as above; type: cell-based; details: NCI-60 five dose screen
Description: as §1

HCT-116 = assay: as above; type: cell-based; details: NCI-60 five dose screen
Description: as §1

HCT-15 = assay: as above; type: cell-based; details: NCI-60 five dose screen
Description: as §1

HL-60(TB) = assay: as above; type: cell-based; details: NCI-60 five dose screen
Description: as §1

HOP-92 = assay: as above; type: cell-based; details: NCI-60 five dose screen, read-out: GI50
Description: as §1

HS 578T = assay: as above; type: cell-based; details: NCI-60 five dose screen
Description: as §1

HT29 = assay: as above; type: cell-based; details: HT-29, NCI-60 five dose screen
Description: as §1

K-562 = assay: as above; type: cell-based; details: K562, NCI-60 five dose screen
Description: as §1

KM12 = assay: as above; type: cell-based; details: NCI-60 five dose screen
Description: as §1

LOX IMVI = assay: as above; type: cell-based; details: NCI-60 five dose screen
Description: as §1

M14 = assay: as above; type: cell-based; details: NCI-60 five dose screen
Description: as §1

MCF7 = assay: as above; type: cell-based; details: NCI-60 five dose screen
Description: as §1

MDA-MB-435 = assay: as above; type: cell-based; details: NCI-60 five dose screen
Description: as §1

MDA-MB-468 = assay: as above; type: cell-based; details: NCI-60 five dose screen
Description: as §1

MOLT-4 = assay: as above; type: cell-based; details: NCI-60 five dose screen
Description: as §1

NCI-H23 = assay: as above; type: cell-based; details: NCI-60 five dose screen
Description: as §1

NCI-H460 = assay: as above; type: cell-based; details: NCI-60 five dose screen
Description: as §1

OVCAR-3 = assay: as above; type: cell-based; details: NCI-60 five dose screen
Description: as §1

PC-3 = assay: as above; type: cell-based; details: NCI-60 five dose screen
Description: as §1

RPMI-8226 = assay: as above; type: cell-based; details: NCI-60 five dose screen
Description: as §1

RXF 393 = assay: as above; type: cell-based; details: NCI-60 five dose screen
Description: as §1

SF-539 = assay: as above; type: cell-based; details: NCI-60 five dose screen
Description: as §1

SK-MEL-5 = assay: as above; type: cell-based; details: NCI-60 five dose screen
Description: as §1

SNB-75 = assay: as above; type: cell-based; details: NCI-60 five dose screen
Description: as §1

SR = assay: as above; type: cell-based; details: NCI-60 five dose screen
Description: as §1

SW-620 = assay: as above; type: cell-based; details: NCI-60 five dose screen
Description: as §1

U251 = assay: as above; type: cell-based; details: U-251, NCI-60 five dose screen
Description: as §1

tubulin = assay: Induction/enhancement of tubulin assembly (Lin, et al., 1996); type: biochemical; details: 10 μM tubulin, 0.4M monosodium glutamate, 30 min at room temperature; Table 2; read-out: induction of tubulin assembly (EC50, μM ± SD)
MCF-7 = assay: Cytotoxicity, standard NCI assay with sulforhodamine B, 96 h; details: Homo sapiens, MCF7, 96 h, read-out: cytotoxicity (GI50, nM ± SD) MCF-7
OVCAR-8 = assay: as above; details: Homo sapiens, OVCAR-8, 96 h, read-out: cytotoxicity (GI50, nM ± SD) OVCAR-8

SMILES	GI50 (A498)	GI50 (A549/ATCC)	GI50 (CCRF-CEM)	GI50 (COLO 205)	GI50 (HCT-116)	GI50 (HCT-15)	GI50 (HL-60(TB))	GI50 (HOP-92)	GI50 (HS 578T)	GI50 (HT29)	GI50 (K-562)	GI50 (KM12)	GI50 (LOX IMVI)	GI50 (M14)	GI50 (MCF7)	GI50 (MDA-MB-435)	GI50 (MDA-MB-468)	GI50 (MOLT-4)	GI50 (NCI-H23)	GI50 (NCI-H460)	also measured
C/C(=C\c1ccn(-c2ccc(N)c(C(F)(F)F)c2)n1)[C@@H]1C[C@@H]2O[C@]2(C)CCC[C@H](C)[C@H](O)[C@@H](C)C(=O)C(C)(C)[C@@H](O)CC(=O)O1 [Compound 11]	11.3 nM	13.4 nM	12.3 nM	8.48 nM	4.82 nM	11 nM	7.36 nM	16.1 nM	7.1 nM	5.74 nM	10.2 nM	9.16 nM	10.3 nM	4.88 nM	< 3.25 nM	< 3.25 nM	10.6 nM	14.2 nM	18.3 nM	8.73 nM	GI50 (OVCAR-3): 10.2 nM; GI50 (PC-3): 12.7 nM; GI50 (RPMI-8226): 9.98 nM; GI50 (RXF 393): 14 nM; GI50 (SF-539): 9.55 nM; GI50 (SK-MEL-5): 10.1 nM; GI50 (SNB-75): 5.75 nM; GI50 (SR): 7.29 nM; GI50 (SW-620): 6.23 nM; GI50 (U251): 14.6 nM; EC50 (tubulin): 2.5 ± 0.5 µM; GI50 (MCF-7): 3 ± 1 nM; GI50 (OVCAR-8): 2.5 ± 0.4 nM
C/C(=C\c1cc(C(F)(F)F)n(-c2ccc(N)cc2)n1)[C@@H]1C[C@@H]2O[C@]2(C)CCC[C@H](C)[C@H](O)[C@@H](C)C(=O)C(C)(C)[C@@H](O)CC(=O)O1 [Compound 9]	66 nM	48.8 nM	47.6 nM	14.7 nM	5.31 nM	22 nM	7.88 nM	183 nM	36.4 nM	5.29 nM	15.7 nM	5.25 nM	25 nM	13.7 nM	3.65 nM	2.08 nM	23.1 nM	48.1 nM	88.5 nM	6.45 nM	GI50 (OVCAR-3): 15.8 nM; GI50 (PC-3): 32.2 nM; GI50 (RPMI-8226): 11.1 nM; GI50 (RXF 393): 40.7 nM; GI50 (SF-539): 24.8 nM; GI50 (SK-MEL-5): 22.1 nM; GI50 (SW-620): 5.4 nM; GI50 (U251): 38.1 nM; EC50 (tubulin): > 40 µM; GI50 (MCF-7): 900 nM; GI50 (OVCAR-8): 300 nM
C/C(=C\c1ccn(-c2ccccc2N)n1)[C@@H]1C[C@@H]2O[C@]2(C)CCC[C@H](C)[C@H](O)[C@@H](C)C(=O)C(C)(C)[C@@H](O)CC(=O)O1 [Compound 10]	18.8 nM	34.5 nM	22.6 nM	20.4 nM	18.3 nM	32.5 nM	17.2 nM	80.7 nM	31.6 nM	18.8 nM	24.4 nM	20.6 nM	31.3 nM	18 nM	17.7 nM	9.56 nM	23.4 nM	27.6 nM	35.8 nM	20.3 nM	GI50 (OVCAR-3): 18.8 nM; GI50 (PC-3): 34.3 nM; GI50 (RPMI-8226): 17.8 nM; GI50 (RXF 393): 39.6 nM; GI50 (SF-539): 15.8 nM; GI50 (SK-MEL-5): 21.9 nM; GI50 (SNB-75): 16.4 nM; GI50 (SR): 27.4 nM; GI50 (SW-620): 24.5 nM; GI50 (U251): 30.8 nM; EC50 (tubulin): 8 ± 1 µM; GI50 (MCF-7): 5.5 nM; GI50 (OVCAR-8): 23 ± 10 nM
C/C(=C\c1ccn(-c2ccc(N)c(F)c2)n1)[C@@H]1C[C@@H]2O[C@]2(C)CCC[C@H](C)[C@H](O)[C@@H](C)C(=O)C(C)(C)[C@@H](O)CC(=O)O1 [Compound 12]	< 5 nM	6.05 nM	6.09 nM	< 5 nM	< 5 nM	< 5 nM	< 5 nM	< 5 nM	5.51 nM	< 5 nM	< 5 nM	< 5 nM	< 5 nM	< 5 nM	< 5 nM	< 5 nM	7.22 nM	< 5 nM	5.72 nM	< 5 nM	GI50 (OVCAR-3): < 5 nM; GI50 (PC-3): 9.75 nM; GI50 (RPMI-8226): < 5 nM; GI50 (RXF 393): 9.39 nM; GI50 (SF-539): 9.41 nM; GI50 (SK-MEL-5): < 5 nM; GI50 (SNB-75): < 5 nM; GI50 (SR): < 5 nM; GI50 (SW-620): < 5 nM; GI50 (U251): < 5 nM; EC50 (tubulin): 7.8 ± 1 µM; GI50 (MCF-7): 2.5 nM; GI50 (OVCAR-8): 1.8 ± 0.4 nM
